Assay results from ChEMBL document CHEMBL1201862, “PubChem BioAssay data set” (2004).
Values belong to the compound of their own block, whether it stands above or below them. Activity calls are given as the source filed them.

Key:
[1] = molecular target: DNA damage-inducible transcript 3 protein (Mus musculus, UniProt P35639); type: functional, Cricetulus griseus
[2] = molecular target: Eukaryotic translation initiation factor 4H (Homo sapiens, UniProt Q15056); assay: human eIF4H binding inhibitors, primary screen, translation initiation inhibitor project, biochemical, uHTS, fluorescence polarization (AID 2012)
[3] = molecular target: DNA dC->dU-editing enzyme APOBEC-3A (Homo sapiens, UniProt P31941); assay: Dose Response confirmation of small molecule APOBEC3A DNA Deaminase Inhibitors via a fluorescence-based single-stranded DNA deaminase assay. [Related pubchem assays (depositor defined):AID493011, AID493024]; type: functional
[4] = molecular target: DNA dC->dU-editing enzyme APOBEC-3G (Homo sapiens, UniProt Q9HC16); type: functional;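 also: Dose-response counterscreen measuring inhibition of APOBEC3G DNA deaminase activity, run while confirming APOBEC3A inhibitors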
[5] = molecular target: Polyadenylate-binding protein 1 (Homo sapiens, UniProt P11940); assay: PABP poly(A) RNA binding inhibitors, primary screen, biochemical, fluorescence polarization, uHTS (AID 2014)
[6] = molecular target: T1, Short transient receptor potential channel 4 (Mus musculus, UniProt Q9QUQ5); assay: mouse TRPC4 channel activators, dose response, cell-based, HEK293 TRPC4/mu-opioid, Fluo-4 calcium (AID 434937); type: functional
T1 sequence (Q9QUQ5 whole entry): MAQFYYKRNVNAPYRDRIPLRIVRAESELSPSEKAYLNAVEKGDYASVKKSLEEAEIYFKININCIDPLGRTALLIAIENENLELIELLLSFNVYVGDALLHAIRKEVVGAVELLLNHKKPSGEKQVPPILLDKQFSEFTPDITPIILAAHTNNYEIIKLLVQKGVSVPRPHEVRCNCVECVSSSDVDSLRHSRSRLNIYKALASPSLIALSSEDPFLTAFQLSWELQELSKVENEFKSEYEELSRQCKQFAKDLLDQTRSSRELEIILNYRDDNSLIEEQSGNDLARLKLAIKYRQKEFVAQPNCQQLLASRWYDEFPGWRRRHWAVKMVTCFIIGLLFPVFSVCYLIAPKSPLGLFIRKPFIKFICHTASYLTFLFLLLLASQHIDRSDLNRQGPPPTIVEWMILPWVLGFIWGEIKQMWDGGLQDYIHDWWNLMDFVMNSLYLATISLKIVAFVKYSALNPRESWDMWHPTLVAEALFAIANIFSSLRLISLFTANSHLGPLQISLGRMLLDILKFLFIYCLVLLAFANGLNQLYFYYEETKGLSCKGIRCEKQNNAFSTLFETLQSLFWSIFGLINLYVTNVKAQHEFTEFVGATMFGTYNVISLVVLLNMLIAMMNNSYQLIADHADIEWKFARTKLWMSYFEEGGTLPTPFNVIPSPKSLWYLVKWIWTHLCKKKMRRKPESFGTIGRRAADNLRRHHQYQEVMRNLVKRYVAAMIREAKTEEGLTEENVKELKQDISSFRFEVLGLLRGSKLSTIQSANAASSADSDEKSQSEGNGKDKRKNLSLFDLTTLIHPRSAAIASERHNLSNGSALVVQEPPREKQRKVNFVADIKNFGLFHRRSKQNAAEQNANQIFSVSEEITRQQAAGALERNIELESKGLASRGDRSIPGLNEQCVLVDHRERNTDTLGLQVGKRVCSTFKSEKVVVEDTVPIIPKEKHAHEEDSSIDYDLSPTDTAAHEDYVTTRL

Coagulation factor XII = molecular target: T2, Coagulation factor XII (Homo sapiens, UniProt P00748); type: functional;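 also: activated factor XIIa alpha cleaving a fluorogenic AMC peptide substrate; inhibitor potency from loss of enzyme activity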
T2 sequence (P00748 whole entry): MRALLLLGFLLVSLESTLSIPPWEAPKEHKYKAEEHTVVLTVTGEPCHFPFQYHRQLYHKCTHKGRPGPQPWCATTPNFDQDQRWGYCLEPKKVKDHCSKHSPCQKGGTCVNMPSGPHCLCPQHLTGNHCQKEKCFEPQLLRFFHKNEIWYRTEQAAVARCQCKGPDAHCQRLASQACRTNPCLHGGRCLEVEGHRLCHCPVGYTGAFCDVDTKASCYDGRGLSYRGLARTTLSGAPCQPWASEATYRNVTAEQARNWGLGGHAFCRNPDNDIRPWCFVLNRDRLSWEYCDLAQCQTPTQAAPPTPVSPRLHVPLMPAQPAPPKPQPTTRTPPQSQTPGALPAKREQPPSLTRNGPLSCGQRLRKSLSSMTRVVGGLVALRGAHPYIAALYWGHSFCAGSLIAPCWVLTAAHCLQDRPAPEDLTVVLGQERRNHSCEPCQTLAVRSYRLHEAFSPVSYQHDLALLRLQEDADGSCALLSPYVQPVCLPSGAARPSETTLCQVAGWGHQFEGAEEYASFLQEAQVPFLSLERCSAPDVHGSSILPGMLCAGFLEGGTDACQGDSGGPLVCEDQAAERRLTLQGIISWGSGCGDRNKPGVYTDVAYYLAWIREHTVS

[7] = molecular target: T3, Carboxy-terminal domain RNA polymerase II polypeptide A small phosphatase 1 (Homo sapiens, UniProt Q9GZU7); assay: inhibitors of CTDSP1, concentration-response testing, biochemical assay, absorbance-based, actives from ultra-high-throughput screening (AID 540297); type: functional
T3 sequence (Q9GZU7 whole entry): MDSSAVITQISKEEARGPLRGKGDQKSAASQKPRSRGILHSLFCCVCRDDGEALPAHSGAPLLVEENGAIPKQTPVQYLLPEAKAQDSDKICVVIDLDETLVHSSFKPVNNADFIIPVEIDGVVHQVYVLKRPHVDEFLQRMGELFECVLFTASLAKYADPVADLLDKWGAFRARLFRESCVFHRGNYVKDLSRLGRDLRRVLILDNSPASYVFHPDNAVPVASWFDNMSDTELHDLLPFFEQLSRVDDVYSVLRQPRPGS

[8] = NIH-3T3 fibroblast cytotoxicity, dose response, cytotoxicity control, cell-based, fluorescence, Alamar Blue, secondary assay (AID 2327); type: functional;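 also: NIH-3T3 mouse fibroblasts cultured with fluconazole at 8 µg/mL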
[9] = C. albicans growth with fluconazole, confirmation, fluorescence, retest (AID 2467); type: functional, cell-based
[10] = cytotoxicity toward NIH3T3 fibroblasts, dose response, counter-screen, cell-based, ATP luminescence, mouse fibroblasts (AID 2010); type: functional;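 also: cells exposed to compound for about 90 hours before reading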
[11] = inhibitors of intracellular T. cruzi replication, confirmation, NIH3T3 host cells, beta-gal luminescence (AID 2044); type: functional, cell-based;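 also: intracellular parasites grown in NIH/3T3 mouse fibroblasts as host cells; luminescent beta-galactosidase reporter signal from transgenic T. cruzi replicating inside host cells; inhibitors lower the luminescence signal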
Beta-galactosidase = Beta-galactosidase (Escherichia coli, UniProt Q8VNN2); assay: Dose response counterscreen for EBI2 assay utilizing the enzyme, b-galactosidase.; type: functional
[12] = cytotoxicity in HEK-293T cells, dose response, cytotoxicity control for TCR NF-kB inhibitor project, luminescence, T-cell screen hits (AID 489026); type: functional, cell-based;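 also: cells exposed to compound about 14 hours before the viability readout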
[13] = growth suppression of PTEN-null colon cells, dose response, cell-based, HCT116 PTEN knockout (AID 1047); type: functional;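 also: HCT116 colon tumor cells with PTEN knocked out; cells exposed to compound for 60 hours before readout; potency for loss of cell viability measured by luminescence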
[14] = growth suppression of beta-catenin-knockout colon cells, dose response, cell-based, HCT116, human colon tumor (AID 1045); type: functional;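 also: HCT116 colon tumor cells with beta catenin knocked out; cells exposed to compound for 60 hours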
[15] = molecular target: T4, Voltage-gated N-type calcium channel alpha-1B subunit/Amyloid beta A4 precursor protein-binding family A member 1 (Homo sapiens, UniProt Q00975+Q02410); type: protein assay
[16] = molecular target: T4, Voltage-gated N-type calcium channel alpha-1B subunit/Amyloid beta A4 precursor protein-binding family A member 1; type: protein assay; remark: listed apart in the source
[17] = inhibitors of HIV Env-driven cell fusion, dose response, cherry-pick (AID 652057); type: functional, cell-based
[18] = off-target signal loss in HeLa-CEM21 co-culture – HeLa F-luc CTL cells, cherry-picked, counter-screen for HIV-1 Env fusion inhibitor project, dose response (AID 652040); type: functional, cell-based;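 also: potency for signal decrease marking cytotoxic or nonspecific inhibition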
[19] = inhibitors of clade B AD8 Env fusion, dose response, cell-based, cherry-pick (AID 652062); type: functional;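 also: luciferase signal from cell-cell fusion driven by HIV-1 clade B AD8 Env; potency is for inhibitors of fusion seen as a drop in luminescence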
Paired box protein Pax-8 = Paired box protein Pax-8 (Homo sapiens, UniProt Q06710); assay: inhibitors of PAX8-driven TPO luciferase reporter, dose response, RMG-I cells, cherry-pick (AID 687027); type: functional, cell-based;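 also: luciferase reporter driven by Pax8 target thyroperoxidase promoter measured by SteadyGlo luminescence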
[20] = non-specific cell cytotoxicity, dose response, cytotoxicity control for PAX8 inhibitor project, plate reader, dry powder samples (AID 743021); type: functional, cell-based
BJ [21] = assay: cytotoxicity toward BJ-TERT-LT-ST fibroblasts, dose response, cell-based, RAS-independent, luminescence (AID 1935); type: functional; settings: Homo sapiens;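 also: BJ fibroblasts immortalized with TERT plus LT and ST oncogenes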
[22] = Luminescence Cell-Based Dose Confirmation HTS to Identify Inhibitors of Platelet Dense Granule Release. [Related pubchem assays: 1663 (Primary HTS), 1678 (Summary of Project)]; type: functional
[23] = ZM109 Env clade C HIV-1 fusion inhibitors, dose response, HeLa effector, CEM target cells, luciferase, cherry-pick (AID 652058); type: functional, cell-based
BJ [24] = assay: cytotoxicity toward BJ-TERT fibroblasts, dose response, cell-based, RAS-independent, luminescence (AID 1933); type: functional; settings: Homo sapiens
[25] = molecular target: Luciferin 4-monooxygenase (Photinus pyralis, UniProt P08659); assay: firefly luciferase enzyme inhibitors, dose response, biochemical, luminescence (AID 1891)
[26] = CEM21 lymphoblast cell cytotoxicity, dose response, cytotoxicity control for viral fusion inhibitor project, CellTiter-Glo luminescence, cherry-picked (AID 652042); type: functional, cell-based;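 also: potency for signal decrease meaning cytotoxicity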
[27] = cytotoxicity toward DRD oncogenic fibroblasts, dose response, cell-based, non-viral oncogenic, luminescence (AID 1934); type: functional; settings: Homo sapiens
BJ [28] = assay: cells; type: functional, cell-based; settings: Homo sapiens
[29] = molecular target: Nucleotide-binding oligomerization domain-containing protein 2 (Homo sapiens, UniProt Q9HC29); assay: NOD2 signaling inhibitors, cell-based, luminescence, uHTS, HEK293 (AID 1566); type: functional
HEK293 [30] = assay: cells; type: functional, cell-based; settings: Homo sapiens
HEK293 [31] = assay: cells; type: functional, cell-based; settings: Homo sapiens; remark: listed apart in the source
HEK293 [32] = assay: NOD1 signaling inhibitors, primary screen, cell-based, luminescence, uHTS (AID 1578); type: functional; settings: Homo sapiens
HEK293 [33] = assay: NOD2 signaling inhibitors in MDP-stimulated cells, cell-based, uHTS, luminescence (AID 2001); type: functional; settings: Homo sapiens
HEK293 [34] = assay: cells; type: functional, cell-based; settings: Homo sapiens; remark: listed apart in the source

T4 sequence (Q00975 whole entry): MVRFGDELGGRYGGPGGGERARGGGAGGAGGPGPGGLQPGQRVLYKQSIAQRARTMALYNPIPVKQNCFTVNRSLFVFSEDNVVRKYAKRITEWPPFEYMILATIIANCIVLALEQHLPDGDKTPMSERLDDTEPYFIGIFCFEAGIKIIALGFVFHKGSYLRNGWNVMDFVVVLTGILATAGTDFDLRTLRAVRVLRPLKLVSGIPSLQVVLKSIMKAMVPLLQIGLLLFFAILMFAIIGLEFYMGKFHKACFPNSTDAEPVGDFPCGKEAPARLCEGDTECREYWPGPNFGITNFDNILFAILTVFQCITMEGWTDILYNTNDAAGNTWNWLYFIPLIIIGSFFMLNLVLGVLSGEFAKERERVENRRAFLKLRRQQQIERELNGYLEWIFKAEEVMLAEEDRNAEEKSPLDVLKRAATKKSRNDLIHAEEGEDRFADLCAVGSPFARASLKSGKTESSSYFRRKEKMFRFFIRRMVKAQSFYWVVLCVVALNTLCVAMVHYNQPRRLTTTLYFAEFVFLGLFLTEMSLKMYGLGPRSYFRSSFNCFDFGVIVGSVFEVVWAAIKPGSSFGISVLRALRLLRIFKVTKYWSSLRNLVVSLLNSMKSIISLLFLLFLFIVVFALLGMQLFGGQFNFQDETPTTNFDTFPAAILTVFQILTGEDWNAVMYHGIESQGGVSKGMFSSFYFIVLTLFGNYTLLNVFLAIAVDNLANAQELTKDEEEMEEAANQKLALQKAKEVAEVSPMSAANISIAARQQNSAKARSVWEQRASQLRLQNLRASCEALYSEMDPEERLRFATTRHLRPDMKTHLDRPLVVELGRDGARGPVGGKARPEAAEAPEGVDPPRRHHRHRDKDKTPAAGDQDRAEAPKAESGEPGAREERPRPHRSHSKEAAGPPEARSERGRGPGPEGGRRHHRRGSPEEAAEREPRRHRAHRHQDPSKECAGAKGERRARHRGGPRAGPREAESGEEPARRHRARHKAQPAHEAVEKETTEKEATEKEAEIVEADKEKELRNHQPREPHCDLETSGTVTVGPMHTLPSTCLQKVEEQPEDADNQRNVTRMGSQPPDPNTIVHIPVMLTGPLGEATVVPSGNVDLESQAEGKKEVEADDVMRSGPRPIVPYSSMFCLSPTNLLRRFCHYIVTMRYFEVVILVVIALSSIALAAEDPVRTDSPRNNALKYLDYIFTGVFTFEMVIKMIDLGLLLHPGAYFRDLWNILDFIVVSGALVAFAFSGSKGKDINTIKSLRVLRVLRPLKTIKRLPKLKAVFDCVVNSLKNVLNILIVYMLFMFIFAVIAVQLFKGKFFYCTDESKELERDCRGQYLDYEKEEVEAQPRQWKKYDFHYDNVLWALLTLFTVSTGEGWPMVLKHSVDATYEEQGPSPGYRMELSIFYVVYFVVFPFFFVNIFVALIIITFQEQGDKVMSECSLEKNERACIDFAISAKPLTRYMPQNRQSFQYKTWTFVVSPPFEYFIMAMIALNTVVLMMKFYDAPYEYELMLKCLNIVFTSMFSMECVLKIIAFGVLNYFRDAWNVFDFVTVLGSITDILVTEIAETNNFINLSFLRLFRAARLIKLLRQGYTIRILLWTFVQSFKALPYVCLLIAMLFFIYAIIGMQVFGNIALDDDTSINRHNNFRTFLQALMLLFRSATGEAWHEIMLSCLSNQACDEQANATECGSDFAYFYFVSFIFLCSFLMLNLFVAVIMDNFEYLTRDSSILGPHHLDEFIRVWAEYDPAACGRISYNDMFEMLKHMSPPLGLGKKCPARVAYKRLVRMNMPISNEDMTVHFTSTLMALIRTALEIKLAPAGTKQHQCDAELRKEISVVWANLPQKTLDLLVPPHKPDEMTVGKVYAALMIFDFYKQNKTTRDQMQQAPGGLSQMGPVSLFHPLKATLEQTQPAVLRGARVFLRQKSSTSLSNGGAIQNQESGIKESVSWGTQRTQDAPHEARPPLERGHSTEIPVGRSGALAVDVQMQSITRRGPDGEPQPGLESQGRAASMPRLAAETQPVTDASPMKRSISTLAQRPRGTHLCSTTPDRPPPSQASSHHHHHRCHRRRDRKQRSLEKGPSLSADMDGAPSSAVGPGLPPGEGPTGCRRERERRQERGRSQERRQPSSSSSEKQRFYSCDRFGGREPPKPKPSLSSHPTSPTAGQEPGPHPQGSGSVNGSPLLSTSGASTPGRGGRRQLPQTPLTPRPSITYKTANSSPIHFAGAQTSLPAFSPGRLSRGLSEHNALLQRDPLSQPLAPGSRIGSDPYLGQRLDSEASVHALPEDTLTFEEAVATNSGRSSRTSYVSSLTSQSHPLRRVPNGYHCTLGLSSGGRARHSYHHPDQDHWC
T4 sequence (Q02410 whole entry): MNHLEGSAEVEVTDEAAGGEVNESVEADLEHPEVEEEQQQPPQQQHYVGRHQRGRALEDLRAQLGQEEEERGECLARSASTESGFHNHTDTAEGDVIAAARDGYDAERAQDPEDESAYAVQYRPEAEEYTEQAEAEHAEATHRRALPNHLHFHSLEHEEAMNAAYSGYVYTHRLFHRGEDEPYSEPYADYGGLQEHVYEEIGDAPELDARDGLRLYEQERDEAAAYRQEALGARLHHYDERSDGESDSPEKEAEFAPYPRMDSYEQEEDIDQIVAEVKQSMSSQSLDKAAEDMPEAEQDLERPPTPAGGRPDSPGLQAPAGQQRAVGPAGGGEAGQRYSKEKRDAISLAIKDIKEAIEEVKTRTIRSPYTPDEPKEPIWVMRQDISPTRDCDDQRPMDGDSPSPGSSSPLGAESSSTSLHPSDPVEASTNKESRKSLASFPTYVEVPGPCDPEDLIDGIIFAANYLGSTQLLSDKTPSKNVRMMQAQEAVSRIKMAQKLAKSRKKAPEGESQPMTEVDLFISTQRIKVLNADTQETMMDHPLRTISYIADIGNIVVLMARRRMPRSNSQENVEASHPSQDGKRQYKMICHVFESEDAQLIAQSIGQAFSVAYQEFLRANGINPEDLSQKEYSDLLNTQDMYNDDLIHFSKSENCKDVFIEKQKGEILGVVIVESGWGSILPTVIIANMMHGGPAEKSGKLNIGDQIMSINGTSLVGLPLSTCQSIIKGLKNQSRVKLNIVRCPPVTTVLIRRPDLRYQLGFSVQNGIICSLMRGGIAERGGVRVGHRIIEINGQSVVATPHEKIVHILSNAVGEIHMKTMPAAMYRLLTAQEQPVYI
Chain of DNA damage-inducible transcript 3 protein (P35639 whole entry): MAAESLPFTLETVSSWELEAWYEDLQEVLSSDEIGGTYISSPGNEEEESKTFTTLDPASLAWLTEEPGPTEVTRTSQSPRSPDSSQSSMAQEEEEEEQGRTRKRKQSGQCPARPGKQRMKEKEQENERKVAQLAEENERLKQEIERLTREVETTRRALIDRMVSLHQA
Chain of DNA dC->dU-editing enzyme APOBEC-3G (Q9HC16 whole entry): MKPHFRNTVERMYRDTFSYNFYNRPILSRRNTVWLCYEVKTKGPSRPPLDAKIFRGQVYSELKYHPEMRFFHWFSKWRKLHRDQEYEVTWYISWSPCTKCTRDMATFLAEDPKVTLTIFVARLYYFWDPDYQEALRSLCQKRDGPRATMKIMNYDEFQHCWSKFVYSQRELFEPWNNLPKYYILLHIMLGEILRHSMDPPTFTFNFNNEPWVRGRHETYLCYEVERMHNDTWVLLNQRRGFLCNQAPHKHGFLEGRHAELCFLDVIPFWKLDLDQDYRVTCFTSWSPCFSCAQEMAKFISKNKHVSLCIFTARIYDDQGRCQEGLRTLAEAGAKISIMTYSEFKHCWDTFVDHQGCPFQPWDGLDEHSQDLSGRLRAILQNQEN
Chain of DNA dC->dU-editing enzyme APOBEC-3A (P31941 whole entry): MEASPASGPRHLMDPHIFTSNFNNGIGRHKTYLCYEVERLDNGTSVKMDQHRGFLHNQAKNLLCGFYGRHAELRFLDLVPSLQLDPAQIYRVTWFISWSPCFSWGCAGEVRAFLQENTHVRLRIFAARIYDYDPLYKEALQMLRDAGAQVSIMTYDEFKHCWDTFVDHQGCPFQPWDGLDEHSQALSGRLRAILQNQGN
Chain of Nucleotide-binding oligomerization domain-containing protein 2 (Q9HC29 whole entry, the tested form may be a part): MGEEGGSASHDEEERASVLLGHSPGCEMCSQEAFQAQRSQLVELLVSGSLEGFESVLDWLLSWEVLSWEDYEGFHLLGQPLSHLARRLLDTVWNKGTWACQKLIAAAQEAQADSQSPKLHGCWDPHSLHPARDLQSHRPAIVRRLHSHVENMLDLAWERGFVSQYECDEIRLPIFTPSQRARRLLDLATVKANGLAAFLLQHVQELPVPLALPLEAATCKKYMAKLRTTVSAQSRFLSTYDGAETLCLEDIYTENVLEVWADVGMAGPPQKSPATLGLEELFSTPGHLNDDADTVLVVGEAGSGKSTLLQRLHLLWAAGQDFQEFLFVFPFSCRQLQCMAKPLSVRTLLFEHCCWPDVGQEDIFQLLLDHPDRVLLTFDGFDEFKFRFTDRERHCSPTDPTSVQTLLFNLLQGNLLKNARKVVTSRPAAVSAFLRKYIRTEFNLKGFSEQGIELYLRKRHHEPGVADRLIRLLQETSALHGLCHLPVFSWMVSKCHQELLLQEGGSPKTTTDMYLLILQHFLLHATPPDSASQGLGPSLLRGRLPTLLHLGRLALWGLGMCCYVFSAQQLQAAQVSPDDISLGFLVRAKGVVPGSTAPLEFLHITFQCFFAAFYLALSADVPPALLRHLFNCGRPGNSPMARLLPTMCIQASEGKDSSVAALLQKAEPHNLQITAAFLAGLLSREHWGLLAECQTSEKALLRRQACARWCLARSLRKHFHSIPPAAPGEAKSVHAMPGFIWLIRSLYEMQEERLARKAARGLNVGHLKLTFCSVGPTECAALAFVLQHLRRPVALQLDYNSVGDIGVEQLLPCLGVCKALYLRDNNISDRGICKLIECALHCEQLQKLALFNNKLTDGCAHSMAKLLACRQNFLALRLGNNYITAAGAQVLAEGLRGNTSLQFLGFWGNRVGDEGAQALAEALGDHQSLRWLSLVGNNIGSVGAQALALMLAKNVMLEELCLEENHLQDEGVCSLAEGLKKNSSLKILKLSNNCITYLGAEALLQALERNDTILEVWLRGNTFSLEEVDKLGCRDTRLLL

SMILES: O=C(c1ccc(Cl)cc1)c1c[nH]c(C(=O)NNc2cccc(Cl)n2)c1
Absolute IC50 (CHOP) [1]: 10 µM

SMILES: CC(C)[N+](C)(C)CC#CC(O)(c1ccccc1)c1ccccc1
IC50 [2]: > 100 µM (inactive) | IC50 [3]: 2.55 µM (active) | IC50 [4]: 2.49 µM (active) | IC50 [5]: 9.63 µM (active)

EC50 [6]: 3.35 µM (active)
SMILES: CN(C)CCNC(=O)c1scc2c1CCCC2

EC50 [6]: 3.76 µM (active)
SMILES: CN(CCc1ccccn1)C(=O)CC1C(=O)NCCN1Cc1ccc(-c2ccccc2)cc1 (stereo unspecified)

IC50 (Coagulation factor XII): > 50 µM (inactive)
SMILES: CCOC(=O)CNC(=O)Cc1ccc(OC)cc1

IC50 (Coagulation factor XII): > 50 µM (inactive)
SMILES: CCn1c(SCC(=O)Nc2cccnc2Cl)nnc1-c1ccccc1

SMILES: CC1(C)CC(N2CCCC2)=CC(=[N+]2CCCC2)C1
IC50 [7]: 3.62 µM (active) | EC50 [8]: > 160 µM (inactive) | IC50 [3]: 1.53 µM (active) | EC50 [9]: 2.7 µM (active) | EC50 [10]: > 60 µM (not active) | EC50 [11]: 0.693 µM (active) | IC50 [4]: 1.47 µM (active)

EC50 [6]: 0.024 µM (active)
SMILES: CCCn1ncc(CN2CCC(n3nccc3NC(=O)CCc3ccccc3)CC2)c1C

SMILES: COc1ccc(Nc2nc(-c3sc(C)nc3C)cs2)cc1
IC50 (Beta-galactosidase): > 80 µM (inactive) | IC50 [12]: 49.6 µM (inactive)

SMILES: COc1ccc(OC)c2sc(NC(=O)c3ccc(Cl)s3)nc12
EC50 [13]: 11.8 µM (active) | EC50 [14]: 9.28 µM (active) | Absolute IC50 (CHOP) [1]: 10 µM

IC50 [15]: 25.9 µM (active) | IC50 [16]: 3.17 µM (active)
SMILES: COc1ccc2nc(O)c(CN(C3CCCCC3)C(c3nnnn3Cc3ccco3)C(C)C)cc2c1 (stereo unspecified)

SMILES: O=C(O)c1ccc(N/N=C/c2ccc3c(c2)OCO3)cc1
AC50 [17]: 2.44 µM (active) | AC50 [18]: 4.15 µM (active) | AC50 [19]: 5.24 µM (active) | AC50 (Paired box protein Pax-8): 3.04 µM (active) | AC50 [20]: 27.7 µM (active) | EC50 (BJ [21]): 24.2 µM (active) | EC50 [22]: < 0.088 µM (active) | IC50 [12]: > 80 µM (inactive) | AC50 [23]: 9.48 µM (active) | EC50 (BJ [24]): 13.1 µM (active) | EC50 [25]: < 0.088 µM (active) | AC50 [26]: 36.6 µM (active) | EC50 [27]: 8.19 µM (active) | EC50 (BJ [28]): 8.37 µM (active)

SMILES: CCOC(=O)c1ccccc1NC(=O)Cn1c(-c2nonc2N)nc2ccccc21
IC50 [12]: > 80 µM (inactive)

SMILES: COc1cc(/C=C/c2ccc3cccc(O)c3n2)cc(Br)c1OC
EC50 [29]: > 20 µM (inactive) | IC50 (HEK293 [30]): 10.4 µM (active) | EC50 (BJ [21]): 21.1 µM (active) | IC50 (HEK293 [31]): > 20 µM (inactive) | EC50 (BJ [24]): 10.2 µM (active) | EC50 (HEK293 [32]): > 20 µM (inactive) | IC50 (HEK293 [33]): 4.13 µM (inactive) | EC50 [10]: 9.61 µM (active) | EC50 [11]: 0.699 µM (active) | IC50 (HEK293 [34]): > 20 µM (inactive) | EC50 [27]: 21.1 µM (active) | EC50 (BJ [28]): 35.8 µM (active)
